The target in experiment [1] is EGFR L858R (Homo sapiens, UniProt P00533, L858R). Put plainly: EGFR degradation, Total EGFR (L858R-specific) HTRF, NCI-H3255. Type of experiment: cell-based. On the set-up: NCI-H3255 (harboring EGFR heterozygous L858R mutation); host or cells: NCI-H3255. To be noted: NCI-H3255 cells, 6 hours, Total EGFR HTRF, read-out: H3255 EGFR DC50. An excerpt:
NCI-H1975 (harboring EGFR heterozygous L858R-T790M mutations) and NCI-H3255 (harboring EGFR heterozygous L858R mutation) were purchased from ATCC and NCI, respectively. NCI-H1975+CS (harboring EGFR heterozygous L858R-T790M-C797S mutations) was generated using CRISPR technology to introduce the additional C797S mutation by Horizon Discovery. A431 (harboring EGFR wildtype) was purchased from ATCC. RPMI 1640 no-phenol red medium and fetal bovine serum (FBS) were purchased from Gibco (Grand Island, NY, USA). Cell culture flasks and 384-well microplates were acquired from VWR (Radnor, PA, USA). Phosphorylated (pY1068) EGFR and Total EGFR (using L858R-specific detection antibody and pan-EGFR antibody for EGFR mutant cell lines and EGFR wild-type cell lines, respectively) HTRF assay kits were purchased from Cisbio (Bedford, MA, USA).
Degradation of EGFR protein containing L858R mutation or wild-type was determined based on quantification of FRET signal using a Total EGFR (L858R-specific or pan-EGFR detecting) HTRF assay kit. Phospho-EGFR (pEGFR) inhibition was determined based on quantification of FRET signal using a pY1068 EGFR HTRF assay kit. In separate assay plates, test compounds were added to the 384-well plate from a top concentration of 10 μM with 11 points, half log titration in duplicates. For each assay, 12.5 uL of cells suspended in assay media (RPMI 1640 no-phenol red medium+10% FBS) at cell densities indicated for each cell line in Table 8 below were dispensed using a multi-channel pipette to 384-well low volume white HTRF microplates containing a duplicate concentration range of test compounds and DMSO controls. The plates were kept at 37° C. with 5% CO2 for 6 hours and then incubated with either phospho EGFR or Total EGFR HTRF detection antibodies according to the cell line and EGFR mutant being assayed. Cells treated in the absence of the test compound were the negative control. Positive control was set by wells containing all reagents but no cells. FRET signal was acquired on EnVision™ Multilabel Reader (PerkinElmer, Santa Clara, CA, USA). Compound concentration that achieves 50% degradation and inhibition was reported as DC50 and IC50, respectively.

The target of experiment [2] is T1, EGFR L858R-T790M (Homo sapiens, UniProt P00533, L858R/T790M).
T1 construct: NCI-H1975 (harboring EGFR heterozygous L858R-T790M mutations); host or cells: NCI-H1975
T1 sequence (P00533 25-1210 T790M/L858R): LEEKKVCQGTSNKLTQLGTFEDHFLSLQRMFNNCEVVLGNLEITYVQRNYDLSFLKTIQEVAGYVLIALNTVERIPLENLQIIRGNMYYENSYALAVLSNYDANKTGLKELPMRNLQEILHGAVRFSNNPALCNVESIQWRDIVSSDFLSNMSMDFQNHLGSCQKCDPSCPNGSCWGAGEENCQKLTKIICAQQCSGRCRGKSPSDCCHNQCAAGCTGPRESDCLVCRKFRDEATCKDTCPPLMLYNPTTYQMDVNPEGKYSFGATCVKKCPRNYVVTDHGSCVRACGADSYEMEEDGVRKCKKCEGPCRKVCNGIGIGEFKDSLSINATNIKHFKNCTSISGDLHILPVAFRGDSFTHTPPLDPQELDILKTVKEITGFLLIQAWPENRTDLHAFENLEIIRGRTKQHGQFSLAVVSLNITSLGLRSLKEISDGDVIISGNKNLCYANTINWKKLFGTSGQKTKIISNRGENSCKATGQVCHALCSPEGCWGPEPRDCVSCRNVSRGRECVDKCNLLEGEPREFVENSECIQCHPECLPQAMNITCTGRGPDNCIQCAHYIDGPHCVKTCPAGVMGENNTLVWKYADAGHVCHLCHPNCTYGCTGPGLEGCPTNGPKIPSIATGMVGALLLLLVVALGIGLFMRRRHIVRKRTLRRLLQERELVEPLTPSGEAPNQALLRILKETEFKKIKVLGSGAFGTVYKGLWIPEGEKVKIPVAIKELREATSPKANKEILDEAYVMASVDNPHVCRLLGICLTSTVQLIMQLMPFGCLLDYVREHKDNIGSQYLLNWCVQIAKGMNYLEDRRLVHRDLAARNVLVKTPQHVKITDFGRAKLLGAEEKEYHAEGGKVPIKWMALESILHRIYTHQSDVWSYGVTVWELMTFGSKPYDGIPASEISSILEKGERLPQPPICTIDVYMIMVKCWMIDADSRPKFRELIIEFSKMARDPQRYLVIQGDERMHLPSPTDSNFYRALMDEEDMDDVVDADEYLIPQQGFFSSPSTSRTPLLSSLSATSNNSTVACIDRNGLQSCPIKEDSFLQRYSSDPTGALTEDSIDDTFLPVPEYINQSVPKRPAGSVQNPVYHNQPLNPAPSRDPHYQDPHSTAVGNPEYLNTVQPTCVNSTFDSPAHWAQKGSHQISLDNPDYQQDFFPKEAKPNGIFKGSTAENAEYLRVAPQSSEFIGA
Put plainly: EGFR degradation, Total EGFR (L858R-specific) HTRF, NCI-H1975. Type of experiment: cell-based. To be noted: NCI-H1975 cells, 6 hours, Total EGFR HTRF, read-out: H1975 EGFR DC50. In a few lines:
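FRET signal from HTRF kits measured phospho-EGFR at pY1068 or total EGFR after 6 h treatment at 37 °C. Compounds ran as 11-point half-log dilutions from 10 μM in duplicate, in cells in phenol red-free RPMI with 10% FBS. Concentrations giving 50% inhibition or degradation were reported as IC50 or DC50.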
Background: TR-FRET usually uses a lanthanide donor and a delayed reading to cut background.

The values that follow come from patent US20240158418A1 (C4 Therapeutics, Inc., priority 2021, published 2024).

Where two headings read alike, the source gives them in different places.

Sequence of EGFR L858R (P00533 25-1210 L858R): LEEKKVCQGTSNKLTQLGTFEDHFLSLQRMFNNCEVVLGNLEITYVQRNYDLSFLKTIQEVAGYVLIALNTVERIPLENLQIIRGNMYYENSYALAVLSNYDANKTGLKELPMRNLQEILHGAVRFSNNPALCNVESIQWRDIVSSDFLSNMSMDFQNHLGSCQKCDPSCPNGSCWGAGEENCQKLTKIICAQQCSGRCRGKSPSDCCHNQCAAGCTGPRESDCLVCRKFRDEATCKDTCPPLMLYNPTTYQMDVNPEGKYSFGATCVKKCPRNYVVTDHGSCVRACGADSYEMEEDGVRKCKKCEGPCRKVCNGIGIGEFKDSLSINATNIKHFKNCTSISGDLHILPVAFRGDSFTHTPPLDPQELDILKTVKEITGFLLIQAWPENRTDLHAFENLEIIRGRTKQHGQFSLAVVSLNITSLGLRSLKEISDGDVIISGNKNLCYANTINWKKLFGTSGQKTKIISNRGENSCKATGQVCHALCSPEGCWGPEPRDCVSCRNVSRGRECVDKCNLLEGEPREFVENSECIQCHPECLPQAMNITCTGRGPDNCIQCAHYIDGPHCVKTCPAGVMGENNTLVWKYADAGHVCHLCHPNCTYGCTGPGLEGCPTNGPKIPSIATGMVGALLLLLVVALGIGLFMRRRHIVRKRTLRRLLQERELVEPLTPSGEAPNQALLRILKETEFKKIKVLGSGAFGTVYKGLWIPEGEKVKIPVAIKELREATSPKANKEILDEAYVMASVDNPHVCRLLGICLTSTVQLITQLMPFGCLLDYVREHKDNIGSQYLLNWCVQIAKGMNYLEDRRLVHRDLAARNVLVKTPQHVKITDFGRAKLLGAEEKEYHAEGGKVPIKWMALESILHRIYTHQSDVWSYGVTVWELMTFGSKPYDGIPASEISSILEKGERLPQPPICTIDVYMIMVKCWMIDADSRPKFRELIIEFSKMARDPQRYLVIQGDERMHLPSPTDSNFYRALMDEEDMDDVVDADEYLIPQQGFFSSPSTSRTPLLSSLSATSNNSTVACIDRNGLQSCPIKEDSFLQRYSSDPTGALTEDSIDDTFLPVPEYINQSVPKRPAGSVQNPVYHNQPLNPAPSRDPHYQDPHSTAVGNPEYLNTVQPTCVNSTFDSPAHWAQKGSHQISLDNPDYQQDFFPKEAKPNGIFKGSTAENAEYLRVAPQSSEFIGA

Turning to `Cn1nc(N2CCC(=O)NC2=O)c2ccc(C3CCN(C(=O)CN4CCC(c5ccc(-c6cc(F)c7c(c6)C(=O)N(C(C(=O)Nc6nccs6)c6ncn8c6CCC8)C7)cc5)CC4)CC3)cc21` (stereo not shown) [Compound 85, 2-(6,7-dihydro-5H-pyrrolo[1,2-c]imidazol-1-yl)-2-[6-[4-[1-[2-[4-[3-(2,4-dioxohexahydropyrimidin-1-yl)-1-methyl-indazol-6-yl]-1-piperidyl]-2-oxo-ethyl]-4-piperidyl]phenyl]-4-fluoro-1-oxo-isoindolin-2-yl]-N-thiazol-2-yl-acetamide], the DC50 (commonly the midpoint of the concentration-degradation curve) was below 0.05 µM in experiment [1] (Table 9B) and 0.05 to 0.15 µM in experiment [2] (Table 9B). On to `O=C1CC[C@H](Nc2ccc(C3CCN(CC(=O)N4CCC(c5cnn(-c6cc(F)c7c(c6)C(=O)N(C(C(=O)Nc6nccs6)c6ncn8c6CCC8)C7)c5)CC4)CC3)cc2)C(=O)N1` (stereo partly drawn) [Compound 29, 2-(6,7-dihydro-5H-pyrrolo[1,2-c]imidazol-1-yl)-2-[6-[4-[1-[2-[4-[4-[[(3S)-2,6-dioxo-3-piperidyl]amino]phenyl]-1-piperidyl]acetyl]-4-piperidyl]pyrazol-1-yl]-4-fluoro-1-oxo-isoindolin-2-yl]-N-thiazol-2-yl-acetamide], for which the DC50 in experiment [1] (Table 9A) and in experiment [2] (Table 9A) was below 0.05 µM in each case. Regarding `O=C1CC[C@H](Nc2ccc(C3CCN(CC(=O)N4CCC(n5cc(-c6cc(F)c7c(c6)C(=O)N(C(C(=O)Nc6nccs6)c6ncn8c6CCC8)C7)cn5)CC4)CC3)cc2)C(=O)N1` (stereo partly drawn) [Compound 28, 2-(6,7-dihydro-5H-pyrrolo[1,2-c]imidazol-1-yl)-2-[6-[1-[1-[2-[4-[4-[[(3S)-2,6-dioxo-3-piperidyl]amino]phenyl]-1-piperidyl]acetyl]-4-piperidyl]pyrazol-4-yl]-4-fluoro-1-oxo-isoindolin-2-yl]-N-thiazol-2-yl-acetamide], the DC50 in experiment [1] (Table 9A) and in experiment [2] (Table 9A) was below 0.05 µM throughout. For the molecule `O=C1CC[C@H](Nc2ccc(C3CCN(CC(=O)N4CCN(c5ccc(-c6cc(F)c7c(c6)C(=O)N(C(C(=O)Nc6nccs6)c6ncn8c6CCC8)C7)cn5)CC4)CC3)c(F)c2)C(=O)N1` (stereo partly shown) [Compound 27], the DC50 in experiment [1] (Table 9A) and in experiment [2] (Table 9A) was below 0.05 µM throughout. `O=C1CC[C@H](Nc2ccc(C3CCN(CC(=O)N4CCC(c5ccc(-c6cc(F)c7c(c6)C(=O)N(C(C(=O)Nc6nccs6)c6ncn8c6CCC8)C7)cc5)CC4)CC3)cc2)C(=O)N1` (stereo partly drawn) [Compound 22, 2-(6,7-dihydro-5H-pyrrolo[1,2-c]imidazol-1-yl)-2-(6-(4-(1-(2-(4-(4-(((S)-2,6-dioxopiperidin-3-yl)amino)phenyl)piperidin-1-yl)acetyl)piperidin-4-yl)phenyl)-4-fluoro-1-oxoisoindolin-2-yl)-N-(thiazol-2-yl)acetamide]: the DC50 in experiment [1] (Table 9A) and in experiment [2] (Table 9A) was below 0.05 µM in each case. For the molecule `O=C1CC[C@@H](Nc2ccc(C3CCN(CC(=O)N4CCN(c5ccc(-c6cc(F)c7c(c6)C(=O)N(C(C(=O)Nc6nccs6)c6ncn8c6CCC8)C7)cc5)CC4)CC3)cc2)C(=O)N1` (stereo partly drawn) [Compound 175, 2-(6,7-dihydro-5H-pyrrolo[1,2-c]imidazol-1-yl)-2-[6-[4-[4-[2-[4-[4-[[(3R)-2,6-dioxo-3-piperidyl]amino]phenyl]-1-piperidyl]acetyl]piperazin-1-yl]phenyl]-4-fluoro-1-oxo-isoindolin-2-yl]-N-thiazol-2-yl-acetamide], the DC50 in experiment [1] (Table 9B) and in experiment [2] (Table 9B) was below 0.05 µM each time. `O=C1CCC(Nc2cc(F)c(N3CCC(CC(=O)N4CC5(C4)CN(c4ccc(-c6cc(F)c7c(c6)C(=O)N(C(C(=O)Nc6nccs6)c6ncn8c6CCC8)C7)cc4)C5)CC3)c(F)c2)C(=O)N1` (stereo not shown) [Compound 101, 2-(6,7-dihydro-5H-pyrrolo[1,2-c]imidazol-1-yl)-2-(6-(4-(6-(2-(1-(4-((2,6-dioxopiperidin-3-yl)amino)-2,6-difluorophenyl)piperidin-4-yl)acetyl)-2,6-diazaspiro[3.3]heptan-2-yl)phenyl)-4-fluoro-1-oxoisoindolin-2-yl)-N-(thiazol-2-yl)acetamide]: the DC50 in experiment [2] (Table 9B) is 0.05 to 0.15 µM.
